Source: PubChem BioAssay AID2060491 (Molecular Pharmacology Branch, DTP, NCI, 2025)

System: 857933-349-R-J2-PDC complex spheroids, viability
Test: Anticancer human tumor 857933-349-R-J2-PDC patient-derived colon adenocarcinoma cell line growth inhibition [GQUAD]
Conditions: for IC50: curve of first compound; for viability, T/C: stronger effect = lower value
How it was run: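 Tumor cells were grown as complex spheroids with HUVEC endothelial cells and mesenchymal stem cells as stroma. G-quadruplex stabilizers were combined with targeted agents over half-log dilutions from near the clinical Cmax, or from 10 microM.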

[1] = second compound 0.0316 µM, first compound 0.0316 µM
[2] = second compound 0.0316 µM, first compound 0.1 µM
[3] = second compound 0.0316 µM, first compound 0.316 µM
[4] = second compound 0.0316 µM, first compound 1 µM
[5] = second compound 0.0316 µM, first compound 3.16 µM
[6] = second compound 0.0316 µM, first compound 10 µM
[7] = second compound 0.1 µM, first compound 0.0316 µM
[8] = second compound 0.1 µM, first compound 0.1 µM
[9] = second compound 0.1 µM, first compound 0.316 µM
[10] = second compound 0.1 µM, first compound 1 µM
[11] = second compound 0.1 µM, first compound 3.16 µM
[12] = second compound 0.1 µM, first compound 10 µM
[13] = second compound 0.316 µM, first compound 0.0316 µM
[14] = second compound 0.316 µM, first compound 0.1 µM
[15] = second compound 0.316 µM, first compound 0.316 µM
[16] = second compound 0.316 µM, first compound 1 µM
[17] = second compound 0.316 µM, first compound 3.16 µM
[18] = second compound 0.316 µM, first compound 10 µM
[19] = second compound 1 µM, first compound 0.0316 µM
[20] = second compound 1 µM, first compound 0.1 µM
[21] = second compound 1 µM, first compound 0.316 µM
[22] = second compound 1 µM, first compound 1 µM
[23] = second compound 1 µM, first compound 3.16 µM
[24] = second compound 1 µM, first compound 10 µM
[25] = second compound 3.16 µM, first compound 0.0316 µM
[26] = second compound 3.16 µM, first compound 0.1 µM
[27] = second compound 3.16 µM, first compound 0.316 µM
[28] = second compound 3.16 µM, first compound 1 µM
[29] = second compound 3.16 µM, first compound 3.16 µM
[30] = second compound 3.16 µM, first compound 10 µM
[31] = second compound 10 µM, first compound 0.0316 µM
[32] = second compound 10 µM, first compound 0.1 µM
[33] = second compound 10 µM, first compound 0.316 µM
[34] = second compound 10 µM, first compound 1 µM
[35] = second compound 10 µM, first compound 3.16 µM
[36] = second compound 10 µM, first compound 10 µM
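Also: spheroids exposed to compounds for one week before readout.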
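For viability, T/C in this document: percent viability relative to vehicle DMSO wells taken as 100%.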

`Nc1ccn(C2OC(CO)C(O)C2(F)F)c(=O)n1` (stereo unspecified) + Cc1cnc(CNC(=O)c2c(=O)c3ccc(N4CCCN(C)CC4)nc3n3c2sc2ccccc23)cn1 showed an IC50 (second compound 0.0316 µM) of 168 nM, an IC50 (second compound 0.1 µM) of 154 nM and an IC50 (second compound 0.316 µM) of less than 31.6 nM. For the same compound, the IC50 (second compound 1 µM) was less than 31.6 nM, the IC50 (second compound 3.16 µM) was less than 31.6 nM and the IC50 (second compound 10 µM) was less than 31.6 nM. It also gave a viability, T/C [1] of 75.9%, a viability, T/C [2] of 52.3% and a viability, T/C [3] of 46.6%. It also gave a viability, T/C [4] of 9.53%, a viability, T/C [5] of 6.32% and a viability, T/C [6] of 3.33%. It also gave a viability, T/C [7] of 63.6%, a viability, T/C [8] of 61% and a viability, T/C [9] of 32.8%. For the same compound, the viability, T/C [10] was 9.17%, the viability, T/C [11] was 3.78% and the viability, T/C [12] was 2.52%. For the same compound, the viability, T/C [13] was 28.4%, the viability, T/C [14] was 18.3% and the viability, T/C [15] was 10.9%. It also gave a viability, T/C [16] of 3.62%, a viability, T/C [17] of 2.32% and a viability, T/C [18] of 1.88%. The viability, T/C [19] was 5.32%, the viability, T/C [20] was 4.52% and the viability, T/C [21] was 2.56%. The viability, T/C [22] was 1.63%, the viability, T/C [23] was 1.61% and the viability, T/C [24] was 1.61%. The viability, T/C [25] was 2.51%, the viability, T/C [26] was 2.77% and the viability, T/C [27] was 1.64%. The viability, T/C [28] was 1.52%, the viability, T/C [29] was 1.19% and the viability, T/C [30] was 0.24%. The viability, T/C [31] was 1.6%, the viability, T/C [32] was 1.03% and the viability, T/C [33] was 1.41%. It also gave a viability, T/C [34] of 0.26%, a viability, T/C [35] of 0.21% and a viability, T/C [36] of 0.2%.
For `C=CC(=O)N1CCN(c2nc(=O)n(-c3c(C)ccnc3C(C)C)c3nc(-c4c(O)cccc4F)c(F)cc23)C(C)C1` (stereo unspecified) + Cc1cnc(CNC(=O)c2c(=O)c3ccc(N4CCCN(C)CC4)nc3n3c2sc2ccccc23)cn1, the IC50 (second compound 0.0316 µM) was greater than 10000 nM, the IC50 (second compound 0.1 µM) was greater than 10000 nM and the IC50 (second compound 0.316 µM) was less than 31.6 nM. The IC50 (second compound 1 µM) was less than 31.6 nM, the IC50 (second compound 3.16 µM) was less than 31.6 nM and the IC50 (second compound 10 µM) was less than 31.6 nM. The viability, T/C [1] was 106%, the viability, T/C [2] was 85.1% and the viability, T/C [3] was 91.4%. It also gave a viability, T/C [4] of 88.1%, a viability, T/C [5] of 111% and a viability, T/C [6] of 79.3%. For the same compound, the viability, T/C [7] was 59.7%, the viability, T/C [8] was 69.3% and the viability, T/C [9] was 64.4%. The viability, T/C [10] was 73%, the viability, T/C [11] was 78.2% and the viability, T/C [12] was 67%. For the same compound, the viability, T/C [13] was 19.7%, the viability, T/C [14] was 25.7% and the viability, T/C [15] was 26.4%. For the same compound, the viability, T/C [16] was 22.1%, the viability, T/C [17] was 34.4% and the viability, T/C [18] was 30.8%. For the same compound, the viability, T/C [19] was 4.37%, the viability, T/C [20] was 5.36% and the viability, T/C [21] was 4.38%. For the same compound, the viability, T/C [22] was 4.4%, the viability, T/C [23] was 4.7% and the viability, T/C [24] was 5.94%. It also gave a viability, T/C [25] of 2.59%, a viability, T/C [26] of 2.48% and a viability, T/C [27] of 2.57%. For the same compound, the viability, T/C [28] was 3.03%, the viability, T/C [29] was 3.31% and the viability, T/C [30] was 2.69%. The viability, T/C [31] was 1.16%, the viability, T/C [32] was 1.17% and the viability, T/C [33] was 1.22%. It also gave a viability, T/C [34] of 1.56%, a viability, T/C [35] of 1.95% and a viability, T/C [36] of 1.37%.
`O=C(c1cc(Cc2n[nH]c(=O)c3ccccc23)ccc1F)N1CCN(C(=O)C2CC2)CC1` + Cc1[nH]c2ccc(F)cc2c1-c1nc2c3cccnc3c3ncccc3c2[nH]1 was tested, and the IC50 (second compound 0.0316 µM) was greater than 10000 nM, the IC50 (second compound 0.1 µM) was greater than 10000 nM and the IC50 (second compound 0.316 µM) was greater than 10000 nM. For the same compound, the IC50 (second compound 1 µM) was greater than 10000 nM, the IC50 (second compound 3.16 µM) was greater than 10000 nM and the IC50 (second compound 10 µM) was greater than 10000 nM. It also gave a viability, T/C [1] of 108%, a viability, T/C [2] of 95.7% and a viability, T/C [3] of 98.1%. For the same compound, the viability, T/C [4] was 96.8%, the viability, T/C [5] was 118% and the viability, T/C [6] was 93.4%. For the same compound, the viability, T/C [7] was 113%, the viability, T/C [8] was 112% and the viability, T/C [9] was 92%. It also gave a viability, T/C [10] of 100%, a viability, T/C [11] of 98.5% and a viability, T/C [12] of 101%. The viability, T/C [13] was 102%, the viability, T/C [14] was 110% and the viability, T/C [15] was 106%. The viability, T/C [16] was 97.1%, the viability, T/C [17] was 103% and the viability, T/C [18] was 90.9%. It also gave a viability, T/C [19] of 92.5%, a viability, T/C [20] of 99.7% and a viability, T/C [21] of 95.7%. For the same compound, the viability, T/C [22] was 97.6%, the viability, T/C [23] was 103% and the viability, T/C [24] was 96.5%. The viability, T/C [25] was 99.2%, the viability, T/C [26] was 105% and the viability, T/C [27] was 98.3%. For the same compound, the viability, T/C [28] was 98.6%, the viability, T/C [29] was 100% and the viability, T/C [30] was 108%. For the same compound, the viability, T/C [31] was 99.9%, the viability, T/C [32] was 100% and the viability, T/C [33] was 101%. It also gave a viability, T/C [34] of 99.8%, a viability, T/C [35] of 99.3% and a viability, T/C [36] of 98%.
